Experimental data: US7763596B2, “Selective glucocorticoid receptor agonists” (The University of Manchester, priority 2000, dated 2010)
Entries after “also recorded” stand apart in the source; their conditions may differ.

Experiments:
[1] = tested on: tyrosine amino transferase (TAT); assay: Quantitation of endogenous tyrosine amino transferase (TAT) in the HEPG2 liver cell line; format: cell-based, human; conditions: HEPG2, 1 μM; p=0.014, two tailed t-test
From the text: The HEP G2 cell line (ECACC: 85011430) is derived from human liver epithelial cells from a well differentiated hepatocellular carcinoma. This cell line has functional endogenous GR and is stimulated by GR activation to produce tyrosine amino transferase.
In this method a colourimetric approach is used to quantitate TAT activity. The TAT enzyme catalyses the following reaction: L-tyrosine+2-oxoglutarate⇄4-hydroxyphenylpyruvate (pHPP)+L-glutamate
This reaction also requires pyridoxal phosphate (PLP) as a co-factor.
Strong alkali conditions can then be used to convert pHPP to p-hydroxybenzaldehyde (pHBA) and oxalate. The amount of pHBA can then be assessed by measuring its absorbance at 331 nm (extinction coefficient 19,900 M^−1cm^−1) this figure is then assumed to be directly proportional to TAT activity. HEPG2 cells were cultivated till confluent on a 10 cm plate (˜10^7 cells). These cells were then scraped off and suspended in 500 μl of ice cold 0.14M KCl. The cells were lysed by 3 cycles of 10 second burst sonication at full power (50 W, 20 kHz Sonicator; Jencons, Leighton Buzzard, UK). The cells were kept on ice between each burst. […]
For each reaction a control reaction was set up without the ketoglutarate. […] The samples were incubated at room temperature for a further 30 mins and then the absorbance of each sample was assessed at 331 nm on a spectrophotometer (Ultrospec III, Pharmacia).

progesterone receptor = target: T1, progesterone receptor (Homo sapiens, UniProt P06401); assay: Classic receptor binding assay, progesterone receptor (data not shown)
T1 sequence (P06401 1-933): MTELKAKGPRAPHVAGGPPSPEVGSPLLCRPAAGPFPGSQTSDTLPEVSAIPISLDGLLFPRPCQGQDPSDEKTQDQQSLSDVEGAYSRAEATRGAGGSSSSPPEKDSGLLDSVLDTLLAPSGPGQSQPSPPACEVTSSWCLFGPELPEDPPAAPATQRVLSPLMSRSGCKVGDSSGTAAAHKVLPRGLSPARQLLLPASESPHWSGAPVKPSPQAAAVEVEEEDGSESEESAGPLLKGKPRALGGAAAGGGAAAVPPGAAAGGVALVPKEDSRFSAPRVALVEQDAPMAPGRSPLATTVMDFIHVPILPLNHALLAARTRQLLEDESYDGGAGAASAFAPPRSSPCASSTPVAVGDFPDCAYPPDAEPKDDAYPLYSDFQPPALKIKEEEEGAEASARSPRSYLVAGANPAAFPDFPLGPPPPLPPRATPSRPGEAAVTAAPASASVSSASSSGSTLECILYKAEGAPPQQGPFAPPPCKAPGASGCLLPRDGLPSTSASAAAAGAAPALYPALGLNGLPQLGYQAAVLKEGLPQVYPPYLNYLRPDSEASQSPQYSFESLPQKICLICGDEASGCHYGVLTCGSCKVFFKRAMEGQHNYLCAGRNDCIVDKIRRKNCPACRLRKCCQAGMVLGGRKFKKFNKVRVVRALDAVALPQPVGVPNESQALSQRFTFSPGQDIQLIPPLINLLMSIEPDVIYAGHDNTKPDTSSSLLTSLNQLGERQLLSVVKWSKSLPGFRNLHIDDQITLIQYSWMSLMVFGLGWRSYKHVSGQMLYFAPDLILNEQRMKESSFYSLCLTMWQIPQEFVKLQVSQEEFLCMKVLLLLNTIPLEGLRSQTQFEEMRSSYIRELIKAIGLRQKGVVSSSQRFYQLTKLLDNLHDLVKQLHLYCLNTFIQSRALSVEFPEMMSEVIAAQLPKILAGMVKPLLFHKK

glucocorticoid receptor = target: T2, glucocorticoid receptor (Homo sapiens, UniProt P04150); assay: Ligand binding competition assay, 3H Dexamethasone; parameters: Human HeLa 53 cells; endogenous in cells; conditions: Human HeLa 53 cells, 2 hours @25° C.
T2 sequence (P04150 1-777): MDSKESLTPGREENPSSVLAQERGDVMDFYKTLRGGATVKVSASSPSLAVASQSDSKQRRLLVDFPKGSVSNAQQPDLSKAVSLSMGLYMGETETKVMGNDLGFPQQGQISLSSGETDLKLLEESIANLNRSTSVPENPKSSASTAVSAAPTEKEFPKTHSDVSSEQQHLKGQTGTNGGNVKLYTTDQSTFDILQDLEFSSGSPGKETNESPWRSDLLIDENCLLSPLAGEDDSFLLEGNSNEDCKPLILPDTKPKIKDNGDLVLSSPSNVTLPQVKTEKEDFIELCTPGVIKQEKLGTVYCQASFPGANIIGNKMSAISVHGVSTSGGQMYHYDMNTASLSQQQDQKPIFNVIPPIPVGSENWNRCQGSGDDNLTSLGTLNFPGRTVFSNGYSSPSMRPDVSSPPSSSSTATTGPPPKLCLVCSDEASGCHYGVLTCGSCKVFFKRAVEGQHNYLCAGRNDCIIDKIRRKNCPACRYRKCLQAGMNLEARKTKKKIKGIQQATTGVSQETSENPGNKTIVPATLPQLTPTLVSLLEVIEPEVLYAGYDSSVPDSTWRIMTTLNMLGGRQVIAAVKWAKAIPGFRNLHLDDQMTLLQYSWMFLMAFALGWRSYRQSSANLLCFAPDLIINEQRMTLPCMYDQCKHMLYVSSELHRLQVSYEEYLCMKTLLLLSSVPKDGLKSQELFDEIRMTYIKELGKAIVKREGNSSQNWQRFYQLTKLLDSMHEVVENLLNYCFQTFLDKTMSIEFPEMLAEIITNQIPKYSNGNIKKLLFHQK
Experimental: Binding of compound G to the glucocorticoid receptor was investigated using a standard competition assay. The conditions were as follows:
IC50 values were determined by a non-linear, least squares regression The KI values were calculated using the equation of Cheng and Prusoff using the observed IC50 of the test compound, the concentration of radioligand employed in the assay, and the historic values for the Kd for the ligand. The Hill coefficient (nH), defined as the slope of the competitive binding curve, was calculated.

Question: With CCCNC(=O)C1(O)C(C)CC2C3CCC4=CC(=O)C=CC4(C)C3(F)C(O)CC21C (stereo not drawn) [Compound G] as the molecule, how does the “TAT activity compared to dexamethasone” value [1] read?
Answer: significant reduction in TAT activity

Question: What about the “binding to the progesterone receptor” value (progesterone receptor) of the same molecule?
Answer: not to bind to the progesterone receptor

Question: And the “binding to the glucocorticoid receptor, competition with 3H Dexamethasone” value (glucocorticoid receptor)?
Answer: bound to the glucocoticoid receptor; also recorded: right shifted when compared to dexamethasone; also recorded: less potent ligand than dexamethasone
